According to ChEMBL document CHEMBL4402557, “Nidufexor (LMB763), a Novel FXR Modulator for the Treatment of Nonalcoholic Steatohepatitis” (J Med Chem, 2020):
Converted amounts (≈) assume the structure as drawn. The source made the active and inactive calls. No cut-off for these calls is given here.

How the values were obtained:
Estrogen receptor [1] = target: T1, Estrogen receptor (Homo sapiens, UniProt P03372); experiment: Agonist activity at ERalpha (unknown origin) incubated for 2 hrs by TR-FRET assay
T1 sequence (P03372 whole entry): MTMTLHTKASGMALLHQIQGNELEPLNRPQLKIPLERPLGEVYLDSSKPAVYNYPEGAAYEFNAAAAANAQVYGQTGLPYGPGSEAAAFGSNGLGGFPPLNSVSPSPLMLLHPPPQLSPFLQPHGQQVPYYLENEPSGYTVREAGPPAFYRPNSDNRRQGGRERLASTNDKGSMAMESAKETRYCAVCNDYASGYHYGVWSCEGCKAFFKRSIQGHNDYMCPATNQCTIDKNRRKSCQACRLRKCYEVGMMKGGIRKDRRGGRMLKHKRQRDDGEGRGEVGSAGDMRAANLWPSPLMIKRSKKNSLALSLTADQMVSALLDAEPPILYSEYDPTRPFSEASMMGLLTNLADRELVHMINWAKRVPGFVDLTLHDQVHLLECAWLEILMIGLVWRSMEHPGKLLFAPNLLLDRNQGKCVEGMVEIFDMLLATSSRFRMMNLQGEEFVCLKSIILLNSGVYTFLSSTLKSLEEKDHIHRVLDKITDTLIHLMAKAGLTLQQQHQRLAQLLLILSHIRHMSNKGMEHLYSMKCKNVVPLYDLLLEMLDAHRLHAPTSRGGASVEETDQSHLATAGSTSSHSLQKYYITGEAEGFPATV

Bile acid receptor = target: T2, Bile acid receptor (Homo sapiens, UniProt Q96RI1); experiment: Agonist activity at FXR transfected in human HEK293T cells o-expressing pGL3/hBSEP/luc incubated for 24 hrs by Steady-Glo reagent based luciferase reporter gene assay; format: cell-based
T2 sequence (Q96RI1 whole entry): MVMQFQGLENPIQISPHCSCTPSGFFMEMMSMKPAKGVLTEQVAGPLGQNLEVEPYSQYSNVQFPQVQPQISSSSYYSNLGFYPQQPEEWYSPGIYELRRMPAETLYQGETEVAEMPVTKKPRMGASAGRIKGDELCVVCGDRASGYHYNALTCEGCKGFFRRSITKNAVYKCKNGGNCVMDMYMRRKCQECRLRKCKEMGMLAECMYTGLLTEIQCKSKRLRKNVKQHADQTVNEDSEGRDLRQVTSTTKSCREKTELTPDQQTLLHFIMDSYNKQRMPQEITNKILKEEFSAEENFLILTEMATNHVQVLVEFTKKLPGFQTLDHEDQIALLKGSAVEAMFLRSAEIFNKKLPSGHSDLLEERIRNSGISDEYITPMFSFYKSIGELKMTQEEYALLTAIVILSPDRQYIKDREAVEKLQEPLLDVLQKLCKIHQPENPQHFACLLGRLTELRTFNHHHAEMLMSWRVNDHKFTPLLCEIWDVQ

[2] = Solubility of compound in pH 6.5 FASSIF at 2 mg measured for 5 to 60 mins by UV spectroscopic method; format: physicochemical
[3] = Metabolic stability in human liver microsomes assessed as hepatic extraction ratio; format: ADME, Microsome; conditions: read-out: ERH
[4] = Permeability of the compound by PAMPA; format: ADME
[5] = Half life in Wistar rat at 3 mg/kg, iv; format: ADME, organism-based; conditions: in vivo
[6] = Oral bioavailability in Wistar rat at 100 mg/kg in presence of TRIS salt; format: ADME, organism-based; conditions: in vivo
[7] = AUC in Wistar rat at 100 mg/kg, po; format: ADME, organism-based; conditions: in vivo
[8] = Cmax in Wistar rat at 300 mg/kg, po; format: ADME, organism-based; design: dose 300 mg/kg, route oral; conditions: in vivo
[9] = Half life in Wistar rat at 10 mg/kg, po; format: ADME, organism-based; conditions: in vivo
[10] = Oral bioavailability in Wistar rat at 3 mg/kg; format: ADME, organism-based; conditions: in vivo
[11] = AUC in Wistar rat liver at 10 mg/kg, po; format: ADME, organism-based
[12] = Ratio of AUC in liver to plasma in Wistar rat liver at 10 mg/kg, po; format: ADME, organism-based; conditions: read-out: Ratio AUC
[13] = target: T3, Bile acid receptor (Rattus norvegicus) (UniProt Q62735); experiment: Agonist activity at FXR in rat primary hepatocytes assessed as increase in BSEP mRNA level incubated for 24 hrs by qRT-PCR analysis relative to tropifexor; format: cell-based
T3 sequence (whole entry): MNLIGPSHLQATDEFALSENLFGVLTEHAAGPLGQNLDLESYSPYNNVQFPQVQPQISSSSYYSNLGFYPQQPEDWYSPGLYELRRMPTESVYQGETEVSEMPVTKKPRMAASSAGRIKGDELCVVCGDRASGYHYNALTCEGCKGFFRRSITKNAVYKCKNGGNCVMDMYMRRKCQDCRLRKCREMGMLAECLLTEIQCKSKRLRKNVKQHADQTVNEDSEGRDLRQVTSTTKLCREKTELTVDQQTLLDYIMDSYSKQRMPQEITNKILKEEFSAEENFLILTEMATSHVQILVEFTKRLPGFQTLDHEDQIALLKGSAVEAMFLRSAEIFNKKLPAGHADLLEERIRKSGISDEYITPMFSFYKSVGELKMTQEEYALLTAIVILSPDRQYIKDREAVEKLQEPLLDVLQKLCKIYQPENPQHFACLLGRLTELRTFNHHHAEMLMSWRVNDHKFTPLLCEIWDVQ

Estrogen receptor [14] = target: T1, Estrogen receptor; experiment: Agonist activity at GAL4-fused ERalpha (unknown origin) expressed in HEK293T cells incubated for 24 by BrightGlo reagent based assay; format: cell-based
Rattus norvegicus [15] = experiment: In-vivo agonist activity at FXR in orally dosed Han Wistar rat assessed as repression of CYP7a1 mRNA level in liver administered via oral gavage once daily for 14 days measured post last dose by qRT-PCR analysis; format: functional, organism-based
Rattus norvegicus [16] = experiment: In-vivo agonist activity at FXR in orally dosed Han Wistar rat assessed as repression of CYP8b1 mRNA level in liver administered via oral gavage once daily for 14 days measured post last dose by qRT-PCR analysis; format: functional, organism-based
Mus musculus [17] = experiment: Anti Steato-hepatitic activity in STZ/HFD induced oral dosed C57BL/6J mouse STAM model assessed as reduction in macrovesicular fat deposition administered via oral gavage once daily for 3 weeks and measured on 9 week by H and E staining based assay; format: functional, organism-based
Mus musculus [18] = experiment: Anti Steato-hepatitic activity in STZ/HFD induced oral dosed C57BL/6J mouse STAM model assessed as reduction in hepatocellular ballooning administered via oral gavage once daily for 3 weeks and measured on 9 week by H and E staining based assay; format: functional, organism-based
Mus musculus [19] = experiment: Anti Steato-hepatitic activity in STZ/HFD induced oral dosed C57BL/6J mouse STAM model assessed as reduction in inflammatory cell infiltration administered via oral gavage once daily for 3 weeks and measured on 9 week by H and E staining based assay; format: functional, organism-based
Mus musculus [20] = species on record: Mus musculus; experiment: Anti Steato-hepatitic activity in C57BL/6J mouse STAM model assessed as change in OSTb gene level in liver; format: functional, organism-based
Mus musculus [21] = species on record: Mus musculus; experiment: Anti Steato-hepatitic activity in C57BL/6J mouse STAM model assessed as change in Aldh1l2 gene level in liver; format: functional, organism-based
Mus musculus [22] = species on record: Mus musculus; experiment: Anti Steato-hepatitic activity in C57BL/6J mouse STAM model assessed as change in Cyp8b1 gene level in liver; format: functional, organism-based
[23] = Clearance in rabbit at 5 mg/kg, iv; format: ADME, organism-based, Oryctolagus cuniculus; conditions: in vivo
[24] = Clearance in dog at 0.5 mg/kg, iv; format: ADME, organism-based, Canis lupus familiaris; conditions: in vivo
[25] = Half life in rabbit at 5 mg/kg, iv; format: ADME, organism-based, Oryctolagus cuniculus; conditions: in vivo

EC50 (Estrogen receptor [1]): > 30 µM
solubility [2]: 3 µM (≈ 1.46 µg/mL)
hepatic extraction ratio [3]: < 0.21
permeability [4]: 94%
half-life [5]: 180 min
bioavailability [6]: 82%
AUC [7]: 399 µM·h
Cmax [8]: 141 µM
half-life [9]: 342 min
bioavailability [10]: 63%
AUC [11]: 36.7 µM·h
Kp [12]: 1.5
EC50 (Estrogen receptor [14]): > 10 µM
clearance [23]: 5.6 mL/min/kg
clearance [24]: 3.6 mL/min/kg
half-life [25]: 264 min
Structure (SMILES): Cn1nc(C(=O)N(Cc2ccccc2)Cc2ccc(C(=O)O)cc2)c2c1-c1cc(Cl)ccc1OC2 [NIDUFEXOR]
EC50 (Bile acid receptor): 32 nM
Activity [13]: 3.7%
Activity (Rattus norvegicus [15]): Active
Activity (Rattus norvegicus [16]): Active
Activity (Mus musculus [17]): Dose-dependent effect
Activity (Mus musculus [18]): Dose-dependent effect
Activity (Mus musculus [19]): Dose-dependent effect
Activity (Mus musculus [20]): Active
Activity (Mus musculus [21]): Active
Activity (Mus musculus [22]): Active
